Tests used:
HIV-1 gene expression = HIV-1 gene expression in CD4+ T-cell line 24ST1NLESG, p24CA ELISA; format: cell-based, HIV-1 (pNL4-3); settings: PMA induced, 24 h, p24CA ELISA of supernatants
Procedure: Drug/compounds were tested for effects on HIV-1 gene expression using inducible Tet-ON HIV-1 cell lines [HeLa rtTA-HIV-ΔMls or rtTA-HIV(Gag-GFP)] containing a HIV-1 (LAI) provirus activatable by Dox or tetracycline transactivator (tTA)[69]. The rtTA-HIV-ΔMls provirus was modified and used as previously reported[9]–[11],[70]. The rtTA-HIV(Gag-GFP) provirus was generated by deletion of the PR and RT coding regions within pol and insertion of GFP to the 3′ of gag, creating GFP fused to the C-terminal of Gag. After 4 h of drug/compound treatment, HIV-1 gene expression was activated with Dox (2 μg/mL) or tTA (described below). Equal concentrations of DMSO were present in each experiment. After ~20 h, cells and media were harvested to monitor the effects of drug/compound treatments as described below. HIV-1 gene expression was quantified via p24^CA ELISA or monitoring Gag-GFP fluorescence in cells as described below. In parallel, cell viability of treatments were assessed by XTT assay (Sigma-Aldrich, #TOX2). […]
treatment of 24ST1NLESG cells (n ≥ 4, mean, s.e.m.). […] Cell lysates were analyzed by western blot with antibodies specific for (c) HIV-1 structural protein, Gag, and (d) viral regulatory factor, Tat. […]

[1] = test system: HeLa rtTA-HIV(Gag-GFP) cells; format: cell-based, human; settings: 220 nM
Procedure: Using the same methods and conditions described for HeLa rtTA-HIV-ΔMls cells, HeLa rtTA-HIV(Gag-GFP) cells were seeded in 48-/12-well plates and pretreated with/without pathway inhibitor prior to treatment with drug/compounds and Dox. Equal concentrations of DMSO were present in each experiment. HIV-1 gene expression was determined by detecting Gag-GFP fluorescence in cells by plate scans using a Typhoon Imager 9400 (Amersham Biosciences) or Typhoon FLA 9400 (GE) on ImageQuant, cell lysates by SDS-PAGE captured on ChemiDoc MP, or cell lysates by p24^CA ELISA. Before quantification, cells were washed with warm PBS and either scanned live (and harvested for protein analyses) or fixed in 3.7% paraformaldehyde/formaldehyde-PBS for subsequent analyses. Data from cell scans and SDS-PAGEs were quantitated using ImageJ and Image Lab software, respectively. To determine which pathway signal was used by a CS to inhibit HIV-1 gene expression, cells treated with CS were pre-treated with a specific pathway inhibitor and monitored for recovery of Gag-GFP expression. […] In parallel, the cell viability of each pathway inhibitor and CS treatment combination were monitored by cell density staining of fixed cells with 2% methylene blue (BioBasic, #MB0342) in 50% ethanol and read at OD664 on a TECAN Infinite® 200 PRO or Biotek Cytation5. […]

SMILES | HIV-1 gene expression in 24ST1NLESG cells (HIV-1 gene expression) | effect on cell density [1]
C[C@H]1O[C@@H](O[C@H]2[C@@H](O)C[C@H](O[C@H]3[C@@H](O)C[C@H](O[C@H]4CC[C@@]5(C)[C@H](CC[C@@H]6[C@@H]5CC[C@]5(C)[C@@H](C7=CC(=O)OC7)CC[C@]65O)C4)O[C@@H]3C)O[C@@H]2C)C[C@H](O)[C@@H]1O [Digitoxin] | Dose-dependent inhibition | –
COc1ccc(C[C@H]2NC[C@H](O)[C@H]2OC(C)=O)cc1 [anisomycin, Anisomycin] | – | little to no effect
